Experimental data taken from patent publication US10259810B2, “N-sulfonylated pyrazolo[3,4-b]pyridin-6-carboxamides and method of use” (AbbVie S.à.r.l., priority 2015, dated 2019).

Columns and labels:
[1] = target: T1, ΔF508-CFTR (Homo sapiens, UniProt P13569, DEL508-508); test: CFTR cell surface levels using HRP-tagged ΔF508-CFTR expressing CFBE cells, in the presence of a co-corrector; type: cell-based; details: HRP-tagged ΔF508-CFTR CFBE cells, in the presence of 3 μM co-corrector; for EC50: read-out: EC50
T1 construct: host or cells: CFBE41o-, doxycycline-inducible
Method in brief: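 Chemiluminescent read-out of surface HRP (15 min, dark) after PBS washes. Activity is normalized as 100×(sample−DMSO)/(3 μM co-corrector alone−DMSO).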

[2] = target: T1, ΔF508-CFTR; test: CFTR cell surface levels using HRP-tagged ΔF508-CFTR expressing CFBE cells, intrinsic corrector capacity; type: cell-based; parameters: % Activation: concentration or dose not given beside the values; details: HRP-tagged ΔF508-CFTR expressing CFBE41o- cells, compound alone (intrinsic corrector capacity), 20 hours at 33° C.; for EC50: read-out: EC50
Method in brief: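 Read-out: chemiluminescent HRP activity of ECL4-HRP-tagged ΔF508-CFTR at the cell surface, 15 min substrate in dark. Normalized as 100×(sample−DMSO)/(positive control−DMSO).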

T1 sequence (P13569 with tags, fused parts or gaps DEL508-508): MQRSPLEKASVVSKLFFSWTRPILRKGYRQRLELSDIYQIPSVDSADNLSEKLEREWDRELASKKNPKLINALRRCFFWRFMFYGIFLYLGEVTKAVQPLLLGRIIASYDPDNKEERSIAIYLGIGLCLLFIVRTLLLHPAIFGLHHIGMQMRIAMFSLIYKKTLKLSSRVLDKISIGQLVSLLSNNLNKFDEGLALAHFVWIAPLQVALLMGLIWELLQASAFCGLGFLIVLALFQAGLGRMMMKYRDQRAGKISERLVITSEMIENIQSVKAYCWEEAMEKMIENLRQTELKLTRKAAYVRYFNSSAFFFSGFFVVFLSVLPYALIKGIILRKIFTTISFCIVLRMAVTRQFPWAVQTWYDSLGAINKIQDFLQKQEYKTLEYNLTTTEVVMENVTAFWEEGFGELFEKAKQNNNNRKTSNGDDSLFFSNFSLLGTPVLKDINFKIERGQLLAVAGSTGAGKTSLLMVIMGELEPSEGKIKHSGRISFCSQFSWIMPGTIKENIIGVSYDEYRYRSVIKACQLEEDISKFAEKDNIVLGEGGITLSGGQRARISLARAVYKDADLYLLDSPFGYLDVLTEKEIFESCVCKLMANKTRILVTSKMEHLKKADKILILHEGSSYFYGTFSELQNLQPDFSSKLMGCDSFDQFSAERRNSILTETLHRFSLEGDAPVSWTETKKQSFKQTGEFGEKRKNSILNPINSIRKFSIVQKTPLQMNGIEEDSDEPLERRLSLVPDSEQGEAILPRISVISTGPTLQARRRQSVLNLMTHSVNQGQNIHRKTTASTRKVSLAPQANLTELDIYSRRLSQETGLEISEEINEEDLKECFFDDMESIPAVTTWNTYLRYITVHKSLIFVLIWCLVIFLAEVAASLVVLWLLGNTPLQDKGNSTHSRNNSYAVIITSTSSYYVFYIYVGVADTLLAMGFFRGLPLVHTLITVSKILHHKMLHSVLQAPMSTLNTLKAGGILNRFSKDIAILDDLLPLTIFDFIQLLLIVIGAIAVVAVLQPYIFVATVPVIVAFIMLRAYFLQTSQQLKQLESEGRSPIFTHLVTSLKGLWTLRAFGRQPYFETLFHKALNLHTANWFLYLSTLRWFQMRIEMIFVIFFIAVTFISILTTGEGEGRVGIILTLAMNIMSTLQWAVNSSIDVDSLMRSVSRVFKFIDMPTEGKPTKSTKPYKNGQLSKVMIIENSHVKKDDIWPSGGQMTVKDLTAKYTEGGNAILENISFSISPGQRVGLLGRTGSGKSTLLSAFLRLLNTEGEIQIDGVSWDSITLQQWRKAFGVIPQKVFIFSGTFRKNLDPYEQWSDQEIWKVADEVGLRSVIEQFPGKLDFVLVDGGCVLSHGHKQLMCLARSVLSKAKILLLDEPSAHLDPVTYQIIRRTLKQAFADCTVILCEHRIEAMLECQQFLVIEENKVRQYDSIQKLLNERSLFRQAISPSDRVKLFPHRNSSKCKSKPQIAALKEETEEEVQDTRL

## CCS(=O)(=O)NC(=O)c1cc(-c2ccc(N(C)C3CCOCC3)nc2)c2c(C(C)C)nn(-c3cccc(F)c3)c2n1 [Compound 224, N-(ethanesulfonyl)-1-(3-fluorophenyl)-4-{6-[methyl(oxan-4-yl)amino]pyridin-3-yl}-3-(propan-2-yl)-1H-pyrazolo[3,4-b]pyridine-6-carboxamide]
[1]
  % Activation: 453.1%
  EC50: 0.482 µM
[2]
  % Activation: 228.8%
  EC50: 0.544 µM

## CC(C)Oc1nn(-c2ccccc2)c2nc(C(=O)NS(=O)(=O)C3CC3)cc(-c3ccc(N4CCOCC4)cc3)c12 [Compound 225, N-(cyclopropanesulfonyl)-4-[4-(morpholin-4-yl)phenyl]-1-phenyl-3-[(propan-2-yl)oxy]-1H-pyrazolo[3,4-b]pyridine-6-carboxamide]
[1]
  % Activation: 427.95%
  EC50: 0.579 µM
[2]
  % Activation: 215.35%
  EC50: 0.456 µM

## CC(C)c1nn(-c2ccnc(N3CCOCC3)c2)c2nc(C(=O)NS(C)(=O)=O)cc(-c3ccc(N4CCC(C#N)CC4)nc3)c12 [Compound 227, 4-[6-(4-cyanopiperidin-1-yl)pyridin-3-yl]-N-(methanesulfonyl)-1-[2-(morpholin-4-yl)pyridin-4-yl]-3-(propan-2-yl)-1H-pyrazolo[3,4-b]pyridine-6-carboxamide]
[1]
  % Activation: 378.2%
  EC50: 0.307 µM
[2]
  % Activation: 216.8%
  EC50: 0.449 µM

## COCCS(=O)(=O)NC(=O)c1cc(-c2ccc(OC)cc2)c2c(C)nn(CC(C)C)c2n1 [Compound 231, N-(2-methoxyethanesulfonyl)-4-(4-methoxyphenyl)-3-methyl-1-(2-methylpropyl)-1H-pyrazolo[3,4-b]pyridine-6-carboxamide]
[1]
  % Activation: 329.9%
  EC50: 0.518 µM
[2]
  % Activation: 162.9%
  EC50: 0.939 µM

## COCCS(=O)(=O)NC(=O)c1cc(-c2ccc(N3CCOCC3)cc2)c2c(C(C)C)nn(C3CCOC3)c2n1 (stereo not shown) [Compound 232, N-(2-methoxyethanesulfonyl)-4-[4-(morpholin-4-yl)phenyl]-1-(oxolan-3-yl)-3-(propan-2-yl)-1H-pyrazolo[3,4-b]pyridine-6-carboxamide]
[1]
  % Activation: 199.75%
  EC50: 1.73 µM
[2]
  % Activation: 71.64%
  EC50: 1.68 µM

## COCCS(=O)(=O)NC(=O)c1cc(-c2ccc(N3CCOCC3)cc2)c2cnn(-c3ccccc3)c2n1 [Compound 233, N-(2-methoxyethanesulfonyl)-4-[4-(morpholin-4-yl)phenyl]-1-phenyl-1H-pyrazolo[3,4-b]pyridine-6-carboxamide]
[1]
  % Activation: 206.57%
  EC50: 1.93 µM
[2]
  % Activation: 58.34%
  EC50: 2.44 µM

## COCCS(=O)(=O)NC(=O)c1cc(-c2ccc(OC)cc2)c2c(C)nn(C(C)C)c2n1 [Compound 234, N-(2-methoxyethanesulfonyl)-4-(4-methoxyphenyl)-3-methyl-1-(propan-2-yl)-1H-pyrazolo[3,4-b]pyridine-6-carboxamide]
[1]
  % Activation: 128.3%
  EC50: > 10 µM
[2]
  % Activation: 17.89%
  EC50: > 10 µM

## COCCS(=O)(=O)NC(=O)c1cc(-c2ccc(N3CCOCC3)cc2)c2c(C)nn(C3CC3)c2n1 [Compound 235, 1-cyclopropyl-N-(2-methoxyethanesulfonyl)-3-methyl-4-[4-(morpholin-4-yl)phenyl]-1H-pyrazolo[3,4-b]pyridine-6-carboxamide]
[1]
  % Activation: 257.55%
  EC50: 2.49 µM
[2]
  % Activation: 102.76%
  EC50: 3.27 µM

## CS(=O)(=O)NC(=O)c1cc(OC[C@H](F)C2CCOCC2)c2c(C3CCC3)nn(-c3ccccc3)c2n1 [Compound 237, 3-cyclobutyl-4-[(2R)-2-fluoro-2-(oxan-4-yl)ethoxy]-N-(methanesulfonyl)-1-phenyl-1H-pyrazolo[3,4-b]pyridine-6-carboxamide]
[1]
  % Activation: 264.05%
  EC50: 0.222 µM
[2]
  % Activation: 120%
  EC50: 0.453 µM

## Cc1nn(C2CCCCC2)c2nc(C(=O)NS(=O)(=O)C3CC3)cc(-c3ccc(N4CCOCC4)cc3)c12 [Compound 239, 1-cyclohexyl-N-(cyclopropanesulfonyl)-3-methyl-4-[4-(morpholin-4-yl)phenyl]-1H-pyrazolo[3,4-b]pyridine-6-carboxamide]
[1]
  % Activation: 431.55%
  EC50: 1.24 µM
[2]
  % Activation: 184.6%
  EC50: 0.999 µM

## COCC1CCN(c2cc(C(=O)NS(=O)(=O)c3cn[nH]c3)nc3c2c(C2CCC2)nn3-c2ccccc2)CC1 [Compound 253, 3-cyclobutyl-4-[4-(methoxymethyl)piperidin-1-yl]-1-phenyl-N-(1H-pyrazole-4-sulfonyl)-1H-pyrazolo[3,4-b]pyridine-6-carboxamide]
[1]
  % Activation: 454.4%
  EC50: 0.251 µM
[2]
  % Activation: 174.6%
  EC50: 0.676 µM

## CC1(COc2cc(C(=O)NS(C)(=O)=O)nc3c2c(C2CCC2)nn3-c2ccccc2)COC1 [Compound 254, 3-cyclobutyl-N-(methanesulfonyl)-4-[(3-methyloxetan-3-yl)methoxy]-1-phenyl-1H-pyrazolo[3,4-b]pyridine-6-carboxamide]
[1]
  % Activation: 312.1%
  EC50: 0.37 µM
[2]
  % Activation: 117.5%
  EC50: 0.4 µM

## COC1(CN2CCS(=O)(=O)CC2)CCN(c2cc(C(=O)NS(C)(=O)=O)nc3c2c(C2CCC2)nn3-c2ccccc2)CC1 [Compound 255, 3-cyclobutyl-4-{4-[(1,1-dioxo-1λ^6,4-thiazinan-4-yl)methyl]-4-methoxypiperidin-1-yl}-N-(methanesulfonyl)-1-phenyl-1H-pyrazolo[3,4-b]pyridine-6-carboxamide]
[1]
  % Activation: 365.8%
  EC50: 3.33 µM
[2]
  % Activation: 122.3%
  EC50: 1.88 µM

## COCCS(=O)(=O)NC(=O)c1cc(N2CCC(COC)CC2)c2c(C3CCC3)nn(-c3ccccc3)c2n1 [Compound 256, 3-cyclobutyl-N-(2-methoxyethanesulfonyl)-4-[4-(methoxymethyl)piperidin-1-yl]-1-phenyl-1H-pyrazolo[3,4-b]pyridine-6-carboxamide]
[1]
  % Activation: 508.63%
[2]
  % Activation: 331.85%

## CS(=O)(=O)NC(=O)c1cc(-c2ccc(N3CCC(C#N)CC3)nc2)c2c(n1)n(-c1ccccc1)nc2[C@H]1C[C@H](C)C1 [Compound 257, 4-[6-(4-cyanopiperidin-1-yl)pyridin-3-yl]-N-(methanesulfonyl)-3-(trans-3-methylcyclobutyl)-1-phenyl-1H-pyrazolo[3,4-b]pyridine-6-carboxamide]
[1]
  % Activation: 451.25%
  EC50: 0.0743 µM
[2]
  % Activation: 272.4%
  EC50: 0.37 µM

## CS(=O)(=O)NC(=O)c1cc(-c2ccc(N3CCC(C#N)CC3)nc2)c2c(OC3CCNCC3)nn(-c3ccccc3)c2n1 [Compound 258, 4-[6-(4-cyanopiperidin-1-yl)pyridin-3-yl]-N-(methanesulfonyl)-1-phenyl-3-[(piperidin-4-yl)oxy]-1H-pyrazolo[3,4-b]pyridine-6-carboxamide]
[1]
  % Activation: 127.1%
  EC50: > 10 µM
[2]
  % Activation: 8.829%
  EC50: > 10 µM

## COCC1CCN(c2cc(C(=O)NS(=O)(=O)CCN3C(=O)c4ccccc4C3=O)nc3c2c(C2CCC2)nn3-c2ccccc2)CC1 [Compound 260, 3-cyclobutyl-N-[2-(1,3-dioxoisoindolin-2-yl)ethylsulfonyl]-4-[4-(methoxymethyl)-1-piperidyl]-1-phenyl-pyrazolo[3,4-b]pyridine-6-carboxamide]
[1]
  % Activation: 664.07%
  EC50: 0.13 µM
[2]
  % Activation: 473.35%
  EC50: 1.87 µM

## COCC1CCN(c2cc(C(=O)NS(=O)(=O)CCN)nc3c2c(C2CCC2)nn3-c2ccccc2)CC1 [Compound 261, N-(2-aminoethanesulfonyl)-3-cyclobutyl-4-[4-(methoxymethyl)piperidin-1-yl]-1-phenyl-1H-pyrazolo[3,4-b]pyridine-6-carboxamide]
[1]
  % Activation: 129.3%
  EC50: > 10 µM
[2]
  % Activation: 26.85%
  EC50: > 10 µM

## COCC1CCN(c2cc(C(=O)NS(C)(=O)=O)nc3c2c(C(C)C)nn3CC2CCC2)CC1 [Compound 262, 1-(cyclobutylmethyl)-N-(methanesulfonyl)-4-[4-(methoxymethyl)piperidin-1-yl]-3-(propan-2-yl)-1H-pyrazolo[3,4-b]pyridine-6-carboxamide]
[1]
  % Activation: 420.17%
  EC50: 0.523 µM
[2]
  % Activation: 232.07%
  EC50: 0.598 µM

## COCC1CCN(c2cc(C(=O)NS(C)(=O)=O)nc3c2c(C(C)C)nn3CC(C)C)CC1 [Compound 264, N-(methanesulfonyl)-4-[4-(methoxymethyl)piperidin-1-yl]-1-(2-methylpropyl)-3-(propan-2-yl)-1H-pyrazolo[3,4-b]pyridine-6-carboxamide]
[1]
  % Activation: 478.6%
  EC50: 3.33 µM
[2]
  % Activation: 242.5%
  EC50: 0.969 µM

## COCCS(=O)(=O)NC(=O)c1cc(N2CCC(COC)CC2)c2c(C(C)C)nn(CC(C)C)c2n1 [Compound 265, N-(2-methoxyethanesulfonyl)-4-[4-(methoxymethyl)piperidin-1-yl]-1-(2-methylpropyl)-3-(propan-2-yl)-1H-pyrazolo[3,4-b]pyridine-6-carboxamide]
[1]
  % Activation: 427.8%
  EC50: 2.14 µM
[2]
  % Activation: 240.8%
  EC50: 3.33 µM
